According to article doi:10.1101/212043v1 (biorxiv, 2017):

Assays:
hsHDAC11 [1] = target: T1, hsHDAC11 (Homo sapiens, UniProt Q96DB2); test: HPLC deacylation assay, Abz fluorescence; type: biochemical; conditions: read-out: % inhibition at 100 μM
T1 sequence (Q96DB2 1-347): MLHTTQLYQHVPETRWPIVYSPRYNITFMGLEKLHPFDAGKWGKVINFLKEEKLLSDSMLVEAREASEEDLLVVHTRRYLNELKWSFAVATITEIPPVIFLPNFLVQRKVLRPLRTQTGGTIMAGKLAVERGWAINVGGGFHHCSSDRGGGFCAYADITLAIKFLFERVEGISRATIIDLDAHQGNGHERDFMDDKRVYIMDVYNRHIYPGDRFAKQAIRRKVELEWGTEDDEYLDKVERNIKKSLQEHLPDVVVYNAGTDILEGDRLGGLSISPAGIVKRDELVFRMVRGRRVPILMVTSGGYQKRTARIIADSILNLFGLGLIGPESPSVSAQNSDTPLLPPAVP

hsHDAC11 [2] = target: T1, hsHDAC11; test: HPLC deacylation assay, Abz fluorescence; type: biochemical; conditions: […] trifluoroacetylated peptide substrate, […] enzyme, […]°C; activator

inhibition at 100 µM (hsHDAC11 [1]) [%] | fold stimulation at 100 μM (hsHDAC11 [2]) [fold] | Structure (SMILES)
> 70 | – | CCCCCCCCCCCCCCCC(=O)SCCNC(=O)CCNC(=O)[C@H](O)C(C)(C)COP(=O)(O)OP(=O)(O)OC[C@H]1O[C@@H](n2cnc3c(N)ncnc32)[C@H](O)[C@@H]1OP(=O)(O)O [palmitoyl-CoA]
– | 2.5 | CCCCCCCCCCCCCC(=O)SCCNC(=O)CCNC(=O)[C@H](O)C(C)(C)COP(=O)(O)OP(=O)(O)OC[C@H]1O[C@@H](n2cnc3c(N)ncnc32)[C@H](O)[C@@H]1OP(=O)(O)O [myristoyl-CoA]
